Consider two compounds from patent US20140357582A1, “DESRHAMNOSYL ACTEOSIDE-CONTAINING OLIVE EXTRACT” (SUNTORY HOLDINGS LIMITED, priority 2012, published 2014).

For data set [1] the following is noted: acteoside versus DRA; cited from earlier work.
The test system of the next data set is SD (IGS) male rats. Description: Blood antioxidative activity (FRAP and ORAC methods) in rats after oral administration. The format is in vivo, rat. Conditions: 5 mL/kg; for blood antioxidative activity after administration: 0.8 mM suspension in 0.5% CMC or olive oil, FRAP and ORAC, up to 24 hours. The procedure:
The influence of DRA on blood antioxidative activity was evaluated using rats. The evaluation of blood antioxidative activity was performed using the FRAP and ORAC methods. The DRA and acteoside used in this evaluation were those prepared by the same procedures as in Example 2 and Preparation Example 2, respectively.
(§1) SD (IGS) male rats (6 weeks old) were purchased from Charles River Laboratories Japan, Inc. After the rats were acclimated to the test environment for one week, those rats which grew normally were subjected to testing. The rats were fasted overnight and divided into five groups each consisting of three rats. Rats were orally administered a 0.5% CMC solution (Group 1), a suspension of DRA in 0.5% CMC (0.8 mM) (Group 2), a suspension of purified acteoside in 0.5% CMC (0.8 mM) (Group 3), an olive oil solution (Nacalai Tesque, Inc.; Code No. 073-26) (Group 4), and a suspension of DRA in olive oil (0.8 mM) (Group 5), each at a dose of 5 mL/kg. Before administration and 0.5, 1, 3, 6, 9 and 24 hours after administration for Groups 1-3, or before administration and 1, 3, 6, 9 and 24 hours after administration for Groups 4-5, a blood sample was collected from the caudal vein in heparinized tube and was centrifuged (at 8,000 rpm for 10 min.) to obtain plasma sample. At a later date, plasma FRAP activity as well as the ORAC activity of the supernatants obtained after deproteinization with acetone were evaluated.

The conditions of data set [2]: oral; cited from earlier work.
Data set [3] can be described thus: Absorption in the body: blood concentrations by LC-MS/MS after oral administration. It is filed as in vivo, rat. Conditions: rats; for Cmax: male, SD (IGS), rat, 4 µmol/kg, suspension in 0.5% CMC (0.8 mM), 5 mL/kg, pooled plasma, β-glucuronidase/arylsulphatase treated, read-out: maximum blood concentration (Cmax) of the administered compound itself. On the procedure: as §1
Among the plasma samples collected for the determination of blood antioxidative activity in Example 5, some parts of those samples from Group 1 (a 0.5% CMC solution), Group 2 (a suspension of DRA in 0.5% CMC) and Group 3 (a suspension of acteoside in 0.5% CMC) were used to determine the blood concentrations of the respective samples after administration.
After equivalent amounts of the plasma samples from the three rats in each group were mixed and homogenized, 90 μL of a helix pomatia-derived β-glucuronidase/arylsulphatase/acetate buffer (pH 5.0) was added to 90 μL of the plasma mixture and incubation was conducted at 37° C. for one hour. After 900 μL of acetonitrile was added to terminate the reaction, 10 μL of an aqueous solution of 1% ascorbic acid and 10 μL of an internal standard solution were added, and the contents were mixed and centrifuged (at 15,000 rpm for 10 min.) to recover a supernatant. The recovered supernatant was concentrated under reduced pressure, dissolved again in 50% methanol, passed through a filter, and subjected to LC-MS/MS analysis to quantify acteoside, DRA, hydroxytyrosol, and coffeic acid. The amounts of acteoside, DRA, hydroxytyrosol, and coffeic acid were determined by the ratio of each of their peak areas to the peak area of hesperidin (Wako) used as an internal standard. The LC-MS/MS analysis conditions are shown below.

The mark [4] stands for this setting: suspension in 0.5% CMC, DRA versus acteoside.

Where only a bound is given, the exact number is not on record here.

With `C[C@@H]1O[C@@H](O[C@@H]2[C@@H](O)[C@H](OCCc3ccc(O)c(O)c3)O[C@H](CO)[C@H]2OC(=O)/C=C/c2ccc(O)c(O)c2)[C@H](O)[C@H](O)[C@H]1O` [acteoside], the “in vitro antioxidative activity, comparison” value in data set [1] is reported as “more active than DRA”. Also, the “blood antioxidative activity after administration” value in the data set with SD (IGS) male rats is on record as “little increase”. Also, the “absorbability when orally ingested” value in data set [2] is given as “poor absorbability”. Besides, in data set [3], the Cmax is < 1000 nM.

Turning to `O=C(C=Cc1ccc(O)c(O)c1)O[C@@H]1C(CO)OC(OCCc2ccc(O)c(O)c2)C(O)C1O` (stereo partly shown) [DRA, desrhamnosyl acteoside], the “blood antioxidative activity after administration” value in the data set on SD (IGS) male rats is reported as “apparent increase”. Further, the “time of earlier peak of FRAP activity after administration” value in the data set with SD (IGS) male rats (DRA 0.8 mM, first of bimodal peaks) was 1 to 3 h. Also, in the data set on SD (IGS) male rats (DRA 0.8 mM, second of bimodal peaks), the “time of later peak of FRAP activity after administration” value worked out at 9 h. Besides, the Cmax in data set [3] is < 1000 nM. Moreover, in data set [3] (setting [4]), the “amount absorbed in the body relative to acteoside, by AUCs of coffeic acid” value is given as “about 13 times” and the “amount absorbed in the body relative to acteoside, by AUCs of hydroxytyrosol” value was “about 3 times”.
